These results are taken from patent US20100144688A1, “23-Substituted Derivatives of Lupane-type Pentacyclic Triterpenoids” (ADVANCED LIFE SCIENCES, INC., priority 2008, published 2010).

For one data set, the system named is SK-MEL-2 (melanoma). Description: MTS cell viability assay, SK-MEL-2. It counts as cell-based. Particulars: Homo sapiens, SK-MEL-2, 72 h incubation. The method, then:
(§1) Cells were plated, the evening before treatment, for each treatment on 96-well plates (1×10^4 cells/well) in 100 μL volume per well. Analog solutions were prepared by diluting each test compound in DMSO (10 mM) with the appropriate cell growth media for each individual cell line, or in “Universal Media” if several cell lines were to be assayed in parallel, immediately prior to cell treatment. Universal Media consisted of 5 mL sodium pyruvate (100× liquid stock, MediaTech), 5 mL glucose (100×, 45% liquid stock, MediaTech), 5 mL Penicillin/Streptomycin (100× liquid stock, MediaTech), 10 mL sodium bicarbonate (50× liquid stock, MediaTech), 25 mL Fetal Calf Serum, 1.25 mL insulin (4 mg/mL, Gibco) and 449 mL RPMI media with 2 mM L-glutamine for a total volume of 500 mL.
(§2) Cells were treated by aspirating plating media from each well and adding 80 μL of betulinic acid (control) or each analog solution in serial dilutions to the adherent cells. All treatments were performed in triplicate. Growth media (80 μL) was added to 3 blank wells (no cells) to measure background from the growth media. Growth media alone (no DMSO or test compound) was added to 3 wells containing cells to measure the baseline MTS activity. Vehicle (DMSO) control in serial dilutions, added to cells, was also included to monitor basal toxicity from DMSO. Cells were incubated at 37° C. for 72 h, or 120 h for the OVCAR cell lines. MTS reagent (per 96-well plate) were prepared by combining 2 mL of MTS working solution (Cell Titer Aqueous Non-Radioactive Cell Proliferation Assay, Promega, cat#G1112), 100 μL of 0.92 mg/mL phenazine methosulfate/Dulbecco's PBS and 2.1 mL growth media. MTS reagent (40 μL) was added to each well and incubated at 37° C. for 1.5 to 4 h. Plates were gently shaken by hand until solution in each well appeared homogenous. Absorbances at 490 nm were measured on a Wallac Victor II plate reader at multiple time points following the addition of MTS reagent for each plate. Triplicate absorbance (490 nm) measurements were averaged following background (no cell) subtraction for each drug concentration. Percent Cell Viability was calculated for each drug concentration using the following equation:
(§3) {[Absorbance(analog treated)]/[Absorbance(DMSO treated)]}×100%
(§4) Percent viability (y-axis) was plotted against drug concentration (x-axis) and the resulting graph was used to determine the 50% inhibitory concentration (IC50) for each drug.
(§5) Cytotoxicity dose response for the synthesized triterpenoid derivatives in SK-MEL-2 (melanoma), A-375 (melanoma), Daoy (glioblastoma), LN-229 (glioblastoma), OVCAR-3 (ovarian carcinoma), HT-29 (colon carcinoma), MCF-7 (breast carcinoma) cell lines using the standard MTS assay (described above) is summarized in Table 1.

For a further data set, the system named is Daoy (glioblastoma). Briefly: MTS cell viability assay, Daoy. It counts as cell-based. Particulars: Homo sapiens, Daoy, 72 h incubation. How it is done:
as §1, §2, §3, §4, §5

In a further data set the test system is LN-229 (glioblastoma). Description: MTS cell viability assay, LN-229. It counts as cell-based. The conditions noted are these: Homo sapiens, LN-229, 72 h incubation. The method, then:
as §1, §2, §3, §4, §5

For another data set, the system named is MCF-7 (breast carcinoma). Description: MTS cell viability assay, MCF-7. Type of data set: cell-based. Particulars: Homo sapiens, MCF7, 72 h incubation. The method, then:
as §1, §2, §3, §4, §5
A general note: Tetrazolium dyes change colour on reduction, which living cells bring about.

The next data set has as its system HT-29 (colon carcinoma). Briefly: MTS cell viability assay, HT-29. Type of data set: cell-based. Particulars: Homo sapiens, HT-29, 72 h incubation. The method, then:
as §1, §2, §3, §4, §5

For a further data set, the system named is A-375 (melanoma). Description: MTS cell viability assay, A-375. It counts as cell-based. The conditions noted are these: Homo sapiens, A-375, 72 h incubation. How it is done: as §1, §2, §3, §4, §5
The subject of data set [1] is human leukemia HL-60 cells. Particulars: by decrease in telomerase activity and down-regulation of bcl-2; cited from earlier work.
Data set [2] deals with human colon carcinoma cell lines (Caco-2). The conditions noted are these: Caco-2, at approximately 60 minutes; cited from earlier work.
Data set [3] concerns murine melanoma B16 cells. The conditions noted are these: cited from earlier work.

By IC50 is commonly meant the midpoint of a concentration-inhibition curve. A lower IC50 goes with greater potency. For the molecule `C=C(C)[C@@H]1CC[C@]2(COC(C)=O)CC[C@]3(C)[C@H](CC[C@@H]4[C@@]5(C)CCC(=O)C(C)(COC(C)=O)[C@@H]5CC[C@]43C)[C@@H]12` (some centres unmarked) [Compound 38], the IC50 in the data set on SK-MEL-2 (melanoma) worked out at 18 µM; in the data set with Daoy (glioblastoma), 31 µM.
As to `C=C(C)[C@@H]1CC[C@]2(COC(C)=O)CC[C@]3(C)[C@H](CC[C@@H]4[C@@]5(C)CCC(NC(C)=O)C(C)(COC(C)=O)[C@@H]5CC[C@]43C)[C@@H]12` (some centres unmarked) [Compound 25], the IC50 in the data set with SK-MEL-2 (melanoma) stood at 36 µM; in the data set on Daoy (glioblastoma) it was 38 µM.
As to `C=C(C=O)[C@@H]1CC[C@]2(COC(C)=O)CC[C@]3(C)[C@H](CC[C@@H]4[C@@]5(C)CCC(=O)C(C)(COC(C)=O)[C@@H]5CC[C@]43C)[C@@H]12` (some centres unmarked) [Compound 49a], the IC50 in the data set with SK-MEL-2 (melanoma) was determined as 5 µM; in the data set on LN-229 (glioblastoma), 15 µM; in the data set on MCF-7 (breast carcinoma) it was 4 µM; in the data set on HT-29 (colon carcinoma) it was 5 µM; with A-375 (melanoma), 5 µM; in the data set on Daoy (glioblastoma), 9 µM.
With `C=C(C)[C@@H]1CC[C@]2(CO)CC[C@]3(C)[C@H](CC[C@@H]4[C@@]5(C)CC[C@H](O)C(C)(CO)[C@@H]5CC[C@]43C)[C@@H]12` (some centres unmarked) [Compound 5, 23-hydroxybetulin, reference compound], the IC50 was over 75 µM with SK-MEL-2 (melanoma) and 65 µM with Daoy (glioblastoma).
As for `C=C(CO)[C@@H]1CC[C@]2(C(=O)O)CC[C@]3(C)[C@H](CC[C@@H]4[C@@]5(C)CC[C@H](O)C(C)(CO)[C@@H]5CC[C@]43C)[C@@H]12` (some centres unmarked) [Compound 43a], the 50% inhibitory concentration (IC50) in the data set on SK-MEL-2 (melanoma) and in the data set with Daoy (glioblastoma) was over 75 µM each time.
As to `C=C(CO)[C@@H]1CC[C@]2(C(=O)O)CC[C@]3(C)[C@H](CC[C@@H]4[C@@]5(C)CCC(N)C(C)(CO)[C@@H]5CC[C@]43C)[C@@H]12` (some centres unmarked) [Compound 44a], the 50% inhibitory concentration (IC50) with SK-MEL-2 (melanoma) and with Daoy (glioblastoma) was over 75 µM throughout.
In the case of `C=C(C)[C@@H]1CC[C@]2(C(=O)O)CC[C@]3(C)[C@H](CC[C@@H]4[C@@]5(C)CCC(N)C(C)(CO)[C@@H]5CC[C@]43C)[C@@H]12` (some centres unmarked) [Compound 22], the figures for the IC50 with SK-MEL-2 (melanoma) and with Daoy (glioblastoma) were 36 µM and 38 µM, respectively.
For `C=C(CO)[C@@H]1CC[C@]2(COC(C)=O)CC[C@]3(C)[C@H](CC[C@@H]4[C@@]5(C)CC[C@H](O)C(C)(COC(C)=O)[C@@H]5CC[C@]43C)[C@@H]12` (some centres unmarked) [Compound 43e] the same measures were 16 µM and 16 µM.
For `C=C(CO)[C@@H]1CC[C@]2(CO)CC[C@]3(C)[C@H](CC[C@@H]4[C@@]5(C)CCC(N)C(C)(CO)[C@@H]5CC[C@]43C)[C@@H]12` (some centres unmarked) [Compound 44b], the IC50 with SK-MEL-2 (melanoma) turned out to be 17 µM; with Daoy (glioblastoma), 18 µM.
Taken in the same sequence, the figures for `C=C(C)[C@@H]1CC[C@]2(CO)CC[C@]3(C)[C@H](CC[C@@H]4[C@@]5(C)CCC(NC(C)=O)C(C)(CO)[C@@H]5CC[C@]43C)[C@@H]12` (some centres unmarked) [Compound 27] were 64 µM and over 75 µM.
For `C=C(C)[C@@H]1CC[C@]2(CO)CC[C@]3(C)[C@H](CC[C@@H]4[C@@]5(C)CCC(N)C(C)(CO)[C@@H]5CC[C@]43C)[C@@H]12` (some centres unmarked) [Compound 23], the IC50 was 2 µM in the data set on SK-MEL-2 (melanoma); 15 µM in the data set with LN-229 (glioblastoma); 5 µM in the data set on MCF-7 (breast carcinoma); 6 µM in the data set with HT-29 (colon carcinoma); 5 µM in the data set with A-375 (melanoma); 2 µM in the data set on Daoy (glioblastoma).
Usually melting point stands for the temperature, or range, at which the solid turns liquid. In turn, `C=C(CO)[C@@H]1CC[C@]2(C#N)CC[C@]3(C)[C@H](CC[C@@H]4[C@@]5(C)CCC(=NOC(C)=O)C(C)(COC(C)=O)[C@@H]5CC[C@]43C)[C@@H]12` (some centres unmarked) [Compound 39d] gave a melting point of 141 to 143 °C. In the data set with SK-MEL-2 (melanoma), this molecule had an IC50 of 14 µM. Further, the IC50 with Daoy (glioblastoma) was determined as 33 µM.
Consider `C=C(CO)[C@@H]1CC[C@]2(C#N)CC[C@]3(C)[C@H](CC[C@@H]4[C@@]5(C)CCC(N)C(C)(CO)[C@@H]5CC[C@]43C)[C@@H]12` (some centres unmarked) [Compound 44d], for which the IC50 with SK-MEL-2 (melanoma) turned out to be 32 µM; in the data set on Daoy (glioblastoma), 73 µM.
On to `C=C(C)[C@@H]1CC[C@]2(C(=O)O)CC[C@]3(C)[C@H](CC[C@@H]4[C@@]5(C)CC[C@H](O)C(C)(CO)[C@@H]5CC[C@]43C)[C@@H]12` (some centres unmarked) [Compound 1, 23-Hydroxybetulinic acid], for which the 50% inhibitory concentration (IC50) in the data set with SK-MEL-2 (melanoma) and in the data set with Daoy (glioblastoma) was over 75 µM in each case. Further, the “growth arrest and apoptotic cell death, HL-60” value in data set [1] is “induces growth arrest and apoptotic cell death”. Further, the “intracellular concentration (cellular uptake)” value in data set [2] was 906.7 μM/mg protein. Further, in data set [3] (by increase in reactive oxidative species and dissipation of mitochondrial membrane potential), the “growth arrest and apoptotic cell death, B16” value is “induces growth arrest and apoptotic cell death”. For the same molecule, the “potency against murine melanoma B16 cells” value in data set [3] (compared with betulinic acid (2)) is on record as “increased potency”.
Regarding `C=C(C)[C@@H]1CC[C@]2(C=NO)CC[C@]3(C)[C@H](CC[C@@H]4[C@@]5(C)CCC(=NO)C(C)(CO)[C@@H]5CC[C@]43C)[C@@H]12` (some centres unmarked) [Compound 30], the 50% inhibitory concentration (IC50) was 3 µM with SK-MEL-2 (melanoma); 16 µM in the data set on LN-229 (glioblastoma); under 2 µM in the data set with MCF-7 (breast carcinoma); 13 µM in the data set on HT-29 (colon carcinoma); 4 µM in the data set on A-375 (melanoma); 5 µM in the data set with Daoy (glioblastoma).
Turning to `C=C(C)[C@@H]1CC[C@]2(C#N)CC[C@]3(C)[C@H](CC[C@@H]4[C@@]5(C)CCC(N)C(C)(CO)[C@@H]5CC[C@]43C)[C@@H]12` (some centres unmarked) [Compound 37], the IC50 with SK-MEL-2 (melanoma) is 14 µM; with Daoy (glioblastoma) it was 17 µM.
Taken in the same sequence, the figures for `C=C(C)[C@@H]1CC[C@]2(C(=O)O)CC[C@]3(C)[C@H](CC[C@@H]4[C@@]5(C)CCC(=O)C(C)(CO)[C@@H]5CC[C@]43C)[C@@H]12` (some centres unmarked) [Compound 4, 23-hydroxybetulonic acid, reference compound] were 33 µM and 59 µM.
In the case of `C=C(CO)[C@@H]1CC[C@]2(COC(C)=O)CC[C@]3(C)[C@H](CC[C@@H]4[C@@]5(C)CCC(=O)C(C)(COC(C)=O)[C@@H]5CC[C@]43C)[C@@H]12` (some centres unmarked) [Compound 40c], the 50% inhibitory concentration (IC50) in the data set on SK-MEL-2 (melanoma) came out at 33 µM; with Daoy (glioblastoma), 56 µM.
Taken in the same sequence, the figures for `C=C(C)[C@@H]1CC[C@]2(CO)CC[C@]3(C)[C@H](CC[C@@H]4[C@@]5(C)CCC(=O)C(C)(CO)[C@@H]5CC[C@]43C)[C@@H]12` (some centres unmarked) [Compound 18b] were over 75 µM and 34 µM.
Taken in the same sequence, the figures for `C=C(C)[C@@H]1CC[C@]2(C#N)CC[C@]3(C)[C@H](CC[C@@H]4[C@@]5(C)CCC(=NOC(C)=O)C(C)(COC(C)=O)[C@@H]5CC[C@]43C)[C@@H]12` (some centres unmarked) [Compound 35] were 24 µM and 31 µM.
Regarding `C=C(C)[C@@H]1CC[C@]2(CO)CC[C@]3(C)[C@H](CC[C@@H]4[C@@]5(C)CCC(=NOC(C)=O)C(C)(COC(C)=O)[C@@H]5CC[C@]43C)[C@@H]12` (some centres unmarked) [Compound 15b], the results for the IC50 with SK-MEL-2 (melanoma) and in the data set on Daoy (glioblastoma) were 35 µM and 34 µM, respectively.
For `C=C(C)[C@@H]1CC[C@]2(COC(C)=O)CC[C@]3(C)[C@H](CC[C@@H]4[C@@]5(C)CCC(=NO)C(C)(CO)[C@@H]5CC[C@]43C)[C@@H]12` (some centres unmarked) [Compound 17c] the same measures were 16 µM and 16 µM.
Regarding `C=C(C)[C@@H]1CC[C@]2(C=NO)CC[C@]3(C)[C@H](CC[C@@H]4[C@@]5(C)CCC(=NOC(C)=O)C(C)(COC(C)=O)[C@@H]5CC[C@]43C)[C@@H]12` (some centres unmarked) [Compound 29], the figures for the IC50 in the data set on SK-MEL-2 (melanoma) and with Daoy (glioblastoma) were 16 µM and 14 µM, respectively.
Take `C=C(C)[C@@H]1CC[C@]2(COC(C)=O)CC[C@]3(C)[C@H](CC[C@@H]4[C@@]5(C)CCC(=O)C(C)(CO)[C@@H]5CC[C@]43C)[C@@H]12` (some centres unmarked) [Compound 18c]: the figures for the IC50 with SK-MEL-2 (melanoma) and in the data set on Daoy (glioblastoma) were 29 µM and 16 µM, respectively.
